The values that follow come from US20080275018A1, “ANTIBACTERIAL AMIDE-MACROCYCLES V” (AiCuris GmbH & Co. KG, priority 2005, published 2008).

Test [1] relates to S. aureus RN4220Bi^R. Nature of the test: MIC against biphenomycin-resistant S. aureus RN4220Bi^R. The test is classed as cell-based, Staphylococcus aureus. The conditions noted are these: colony grown on the antibiotic-containing plate. The protocol: (§1) The S. aureus Strain RN4220BiR^R is isolated in vitro. For this purpose, 100 μl portions of an S. aureus RN4220 cell suspension (about 1.2×10^8 cfu/ml) are plated out on an antibiotic-free agar plate (18.5 mM Na2HPO4, 5.7 mM KH2PO4, 9.3 mM NH4Cl, 2.8 mM MgSO4, 17.1 mM NaCl, 0.033 μg/ml thiamine hydrochloride, 1.2 μg/ml nicotinic acid, 0.003 μg/ml biotin, 1% glucose, 25 μg/ml of each proteinogenic amino acid with the addition of 0.4% BH broth and 1% agarose) and on an agar plate containing 2 μg/ml biphenomycin B (10×MIC), and incubated at 37° C. overnight. Whereas about 1×10^7 cells grow on the antibiotic-free plate, about 100 colonies grow on the antibiotic-containing plate, corresponding to a resistance rate of 1×10^−5. Some of the colonies grown on the antibiotic-containing plate are tested for the biphenomycin B MIC. One colony with an MIC of >50 μM is selected for further use, and the strain is referred to as RN4220Bi^R.

The test system of test [2] is S. aureus T17. Nature of the test: Minimum inhibitory concentration (MIC), biphenomycin-resistant S. aureus T17. It is filed as cell-based, Staphylococcus aureus. The protocol:
The minimum inhibitory concentration (MIC) is the minimum concentration of an antibiotic with which the growth of a test microbe is inhibited over 18-24 h. The inhibitor concentration can in these cases be determined by standard microbiological methods (see, for example, The National Committee for Clinical Laboratory Standards. Methods for dilution antimicrobial susceptibility tests for bacteria that grow aerobically; approved standard-fifth edition. NCCLS document M7-A5 [ISBN 1-56238-394-9]. NCCLS, 940 West Valley Road, Suite 1400, Wayne, Pa. 19087-1898 USA, 2000). The test substances are thereby initially provided in 1:2 dilution series into 96-well round-bottom microtiter plates (Greiner) double-concentrated in 50 μl of test medium. The aerobically growing test microbes (e.g. staphylococci and enterococci), which are incubated overnight on Columbia blood agar plates (Becton-Dickinson), are, after resuspension in 0.9% NaCl, adjusted to a microbe count of about 5×10^7 microbes/ml and then diluted 1:150 in cation-adjusted MH medium (test medium). 50 μL of this suspension are pipetted onto the test preparations provided in the microtiter plates. The cultures are incubated at 37° C. for 18-24 hours. For microaerophilically growing microbes (e.g. streptococci), 2% lysed horse blood in the final concentration is added to the medium and the cultures are incubated in the presence of 5% CO2. The lowest substance concentration in each case at which no visible bacterial growth occurs any longer is defined as the MIC and is reported in μg/ml.
(§2) The minimum inhibitory concentration (MIC) is the minimum concentration of an antibiotic with which the growth of a test microbe is inhibited over 18-24 h. The inhibitor concentration can in these cases be determined by standard microbiological methods (see, for example, The National Committee for Clinical Laboratory Standards. Methods for dilution antimicrobial susceptibility tests for bacteria that grow aerobically; approved standard-fifth edition. NCCLS document M7-A5 [ISBN 1-56238-394-9]. NCCLS, 940 West Valley Road, Suite 1400, Wayne, Pa. 19087-1898 USA, 2000). The MIC of the compounds of the invention is determined in the liquid dilution test on the 96-well microtiter plate scale. The bacterial microbes are cultivated in a minimal medium (18.5 mM Na2HPO4, 5.7 mM KH2PO4, 9.3 mM NH4Cl, 2.8 mM MgSO4, 17.1 mM NaCl, 0.033 μg/ml thiamine hydrochloride, 1.2 μg/ml nicotinic acid, 0.003 μg/ml biotin, 1% glucose, 25 μg/ml of each proteinogenic amino acid with the exception of phenylalanine; [H.-P. Kroll; unpublished]) with the addition of 0.4% BH broth (test medium). In the case of Enterococcus faecium L4001, heat-inactivated fetal calf serum (FCS; GibcoBRL, Germany) is added to the test medium in a final concentration of 10%. Overnight cultures of the test microbes are diluted to an OD578 of 0.001 (to 0.01 in the case of enterococci) in fresh test medium, and incubated 1:1 with dilutions of the test substances (1:2 dilution steps) in test medium ([…]). The cultures are incubated at 37° C. for 18-24 hours; enterococci in the presence of 5% CO2.
(§3) The lowest substance concentration in each case at which no visible bacterial growth occurs any longer is defined as the MIC.
The minimum inhibitory concentration (MIC) is the minimum concentration of an antibiotic with which the growth of a test microbe is inhibited over 18-24 h. The inhibitor concentration can in these cases be determined by standard microbiological methods with modified medium in an agar dilution test (see, for example, The National Committee for Clinical Laboratory Standards. Methods for dilution antimicrobial susceptibility tests for bacteria that grow aerobically; approved standard-fifth edition. NCCLS document M7-A5 [ISBN 1-56238-394-9]. NCCLS, 940 West Valley Road, Suite 1400, Wayne, Pa. 19087-1898 USA, 2000). The bacterial microbes are cultivated on 1.5% agar plates which contain 20% defibrinated horse blood. […]

Test [3] has as its system E. faecium L4001. Nature of the test: Minimum inhibitory concentration (MIC), E. faecium L4001. It is filed as cell-based, Enterococcus faecium. To be noted: E. faecium L4001; 10% FCS in test medium. On the procedure: as §2, §3
Test [4] deals with S. aureus RN4220. Nature of the test: Resistance rate of S. aureus RN4220 on agar containing biphenomycin B. It is filed as cell-based, Staphylococcus aureus. The conditions noted are these: S. aureus RN4220, agar plate containing 2 μg/ml biphenomycin B (10×MIC), 37° C. overnight. The protocol: as §1

Take `NC[C@H](O)C[C@@H]1NC(=O)[C@@H](N)Cc2cc(ccc2O)-c2ccc(O)c(c2)C[C@@H](C(=O)O)NC1=O` [Biphenomycin B, biphenomycin B, reference compound]: in test [1], the “MIC of selected colony (strain RN4220Bi^R)” value was > 50 µM. Besides, the “MIC S. aureus T17” value in test [2] (biphenomycin-resistant S. aureus T17) is >32 μ/ml. Besides, in test [2] (colony isolated from kidney of mice treated with biphenomycin B), the “MIC of selected colony (strain T17)” value is > 50 µM. Further, in test [3], the “MIC E. faecium L4001” value is given as 0.5 μ/ml. The resistance rate in test [4] is 1×10^−5.
